One series relates to P-glycoprotein. Conditions: hepatocyte canalicular membrane; cited from earlier work.
Series [1] concerns outwardly-rectifying chloride channel. Conditions: 50 microM; cited from earlier work.
For the next series, the system named is callouses. Nature of the series: Topical treatment of callouses in patients. It counts as in vivo, human. As to the method:
A person had thick painful callouses over the lateral aspect of the 1st metatarsal-phallangeal joint on both feet. A mixture of Diltiazem dissolved at a concentration of 100 mg/ml in an ointment was given to the patient with instructions to apply the ointment 2-3 times per day in small amounts directly to only the callous locate on the 1st metatarsal-phallangeal joint of the left foot, and specifically not to use the ointment on the right foot.
A recreational tennis player had bilateral thickened calluses over the right and left 5th distal metatarsal head of both feet. These callouses were causing their significant pain and disability when they played tennis. The patient was treated with Trifluoperazine and Felodipine impregnated bandages.
Initially a water-proof bandage on which the mixture of Trifluoperazine 30 mg/ml Gel was applied to the adsorbent pad of the bandage with the pad being sized to cover the thickest area of the callous over the was right 5th distal metatarsal head. The pad of the waterproof bandage was applied to the callous and patient was instructed to replace the bandage 1-2 times per day with a new Trifluoperazine impregnated bandage after each shower/bath.
The patient was then given a one month supply of water-proof bandages on which the mixture of Felodipine 100 mg/ml ointment had been applied to the adsorbent pad of the bandage with the pad being sized to cover the thickest area of the callous over the was on the left 5th distal metatarsal head. The pad of the waterproof bandage was applied to the callous and patient was instructed to replaced the bandage 1-2 times per day with a new Felodipine impregnated bandage after each shower/bath.

In another series the test system is psoriatic plaques. Nature of the series: Topical treatment of psoriatic plaques. It counts as in vivo, human.
In series [2] the test system is keloid. The experiment in a line: Topical treatment of keloids in patients. Format: in vivo, human. Conditions: for keloid appearance: Example 17: 100 mg/ml ointment, keloid over mastoid process (Felodipine right, Diltiazem left); for keloid relapse: Example 17: follow up at 6 and 9 months. As for the experimental part:
A person had keloids that had formed over several areas of the donor site scar from a previous hair transplant several years ago over the occipital area of the scalp from mastoid process to mastoid process. The keloids over the mastoid process on right side were initially treated with Felodipine 100 mg/ml ointment. The patient had been given instructions to apply the Felodipine 100 mg/ml ointment several times per day to the right side only and the patient was seen weekly in follow up.

Series [3] deals with keloid. Nature of the series: Topical treatment of keloids in patients. It counts as in vivo, human. The following applies: Example 17: applied for two weeks twice daily to the donor surgical sites.
A further series relates to genital warts. The experiment in a line: Topical treatment of genital (veneral) warts in patients. Format: in vivo, human. As for the experimental part:
(§1) A person applied 0.1 ml of Trifluoperazine Topical Gel 30 mg/ml twice daily topically to several genital warts and a skin tag in the right axillary area.
A person applied 0.1 ml of Diltiazem supplied in 3 ml syringes with removable caps dissolved at a concentration of 100 mg/ml in an ointment twice daily topically to several genital warts.

A further series has as its system plantar wart. The experiment in a line: Topical treatment of plantar warts in patients. As to the method: The warts were 2-5 mm in diameter. The patient was instructed to apply the cream 2-3 times per day to the three plantar warts, Patient used the medication regularly for approximately 4 weeks.
A mixture of Diltiazem dissolved at a concentration of 100 mg/ml in an ointment was applied in small amounts directly to a single small 3 mm diameter plantar wart on sole under the 1st metatarsal-phallangeal joint on the left foot of a person. The patient applied the cream to the gauze pad of a bandage and then taped the bandage over the sole of the foot so that the Diltiazem 100 mg/ml ointment was in contact with the wart. The bandage was replaced daily after showering and this was continued for six weeks.
A person applied 0.1 ml of Trifluoperazine Topical Gel 30 mg/ml twice daily topically to a approximately […] plantar wart that was large enough to make walking painful.

For a further series, the system named is skin tag. The experiment in a line: Treatment of skin tags in patients (injection or topical). Format: in vivo, human. As for the experimental part:
A person had multiple skin tags around their neck where they wore a gold necklace. A mixture of Diltiazem dissolved at a concentration of 100 mg/ml in an ointment was given to the patient with instructions to apply the ointment 1-2 times per day in small amounts directly to the skin tags.
as §1

The subject of another series is corn. Conditions: person.
Where [4] appears, read: Example 18: Topical Gel 30 mg/ml, four weeks of use, follow up a month later.
The mark [5] stands for this setting: Example 13: 0.1 ml Topical Gel 30 mg/ml twice daily, three weeks.

Structures can show the parent of a compound that is named as a salt.

Consider `COc1cccc2c1C(=O)c1c(O)c3c(c(O)c1C2=O)C[C@@](O)(C(C)=O)C[C@@H]3O[C@H]1C[C@H](N)[C@H](O)[C@H](C)O1` [daunorubicin], for which the “transport of permanently charged amphiphilic cations” value in the series with P-glycoprotein is listed as “inhibited”. The “block of outwardly-rectifying chloride channel” value (“block” for short) in series [1] is “blocked”.

For the compound `C=C[C@H]1C[N@@]2CC[C@H]1C[C@@H]2[C@@H](O)c1ccnc2ccc(OC)cc12` [quinidine], the “transport of permanently charged amphiphilic cations” value with P-glycoprotein is “inhibited”.

For `CCOC(=O)C1=C(C)NC(C)=C(C(=O)OC)C1c1cccc(Cl)c1Cl` (stereo not drawn) [Felodipine, Ethyl methyl 4-(2,3-dichlorophenyl)-1,4-dihydro-2,6-dimethylpyridine-3,5-dicarboxylate], the “pain when running and playing tennis” value in the series with callouses (Example 14: 100 mg/ml ointment impregnated bandage 1-2 times per day, left foot, after 3 weeks) is listed as “pain free on both sides”. In addition, the psoriatic plaque clearing result with psoriatic plaques (Example 11: Topical ointment 100 mg/ml, left hand and wrist) was “significant clearing”. Moreover, the keloid appearance result with keloid [2] (person, after 1 week) was “noticeable softening”; in the series with keloid [2] (after 2 weeks), “noticeable flattening and continued softening”; in the series on keloid [2] (by six weeks), “flattened to the level of the adjoining skin”. For the same compound, the keloid relapse result in the series with keloid [2] is given as “no relapse of the initial cosmetic improvement”. For the same compound, the “new keloid formation at FUE graft donor sites” value in the series on keloid [3] was “no new keloid formation”.

Take `COc1ccc([C@@H]2Sc3ccccc3N(CCN(C)C)C(=O)[C@@H]2OC(C)=O)cc1` [Diltiazem, (+)-cis-3-Acetoxy-5-(2-dimethylaminoethyl)-2,3-dihydro-2-(4-methoxyphenyl)-1,5-benzothiazapin-4(5H)-one hydrochloride]: the genital wart clearing entry with genital warts (Example 19: 100 mg/ml ointment, follow up at 5 weeks) is on record as “complete clearing of the genital warts”; with genital warts (Example 19: 0.1 ml of 100 mg/ml ointment twice daily, person, three weeks) it was “significant clearing”. In the series with plantar wart (Example 5: 100 mg/ml ointment on bandage daily, 3 mm wart, person, after about two weeks), the plantar wart size result was “dramatically shrunk in size”. In the series with plantar wart (Example 5: 100 mg/ml ointment on bandage daily, person, six weeks), the plantar wart outcome is on record as “not detected”. Besides, the plantar wart recurrence result with plantar wart (Example 5: person, reassessed after 3 months) is listed as “no evidence of recurrence of the plantar wart”. Also, the skin tags remaining result in the series with skin tag (Example 9: 100 mg/ml ointment 1-2 times per day, multiple neck skin tags, person, one month) is listed as “only a few small skin tags remaining”. In the series with skin tag (Example 9: 100 mg/ml ointment off and on, person, after 3 months), the skin tag outcome is reported as “completely cleared”. In the series on callouses (Example 6: 100 mg/ml ointment 2-3 times per day, left foot only (right foot control unchanged), person, three weeks), the callous thickness is “dramatic reduction in the thickness of the callous”. Besides, the psoriatic plaque clearing result in the series with psoriatic plaques (Example 11: 100 mg/ml ointment, left leg) was “significant clearing”. Also, the keloid appearance entry in the series with keloid [2] (person, after 1 week) is “noticeable softening”; with keloid [2] (after 2 weeks), “noticeable flattening and continued softening”; in the series on keloid [2] (by six weeks), “flattened to the level of the adjoining skin”. In the series on keloid [2], the keloid relapse result was “no relapse of the initial cosmetic improvement”. Moreover, in the series on corn (Example 7: 100 mg/ml ointment 2-3 times per day, one month), the “pain associated with wearing shoes” value is on record as “significant reduction in pain”. Also, in the series on corn (Example 7: 100 mg/ml ointment 2-3 times per day, second toe, one month), the corn thickness entry is given as “noticeable reduction in the thickness of the corn”. Moreover, the corn outcome in the series on corn (Example 7: 100 mg/ml ointment off and on, after 6 months) was “the corn had dissappeared”. In the series with keloid [3], the “new keloid formation at FUE graft donor sites” value is “no new keloid formation”.

On to `CC[C@]1(O)C[C@@H]2CN(CCc3c([nH]c4ccccc34)[C@@](C(=O)OC)(c3cc4c(cc3OC)N(C)[C@H]3[C@@](O)(C(=O)OC)[C@H](OC(C)=O)[C@]5(CC)C=CCN6CC[C@]43[C@@H]65)C2)C1` [vinblastine], for which the “block” value in series [1] is on record as “blocked”.

Consider `CN1CCN(CCCN2c3ccccc3Sc3ccc(C(F)(F)F)cc32)CC1.Cl.Cl` [Trifluoperazine, 10-[3-(4-Methylpiperazin-1-yl)propyl]-2-trifluoromethyl-phenothiazine dihydrochloride], for which the genital wart clearing result in the series with genital warts (Example 18: 0.1 ml Topical Gel 30 mg/ml twice daily, person, three weeks) is “significant clearing”; with genital warts (setting [4]) it was “complete clearing”. In the series on plantar wart (Example 13: 0.1 ml Topical Gel 30 mg/ml twice daily, person, three weeks), the plantar wart clearing entry was “significant clearing”. In the series on plantar wart (setting [5]), the “irritation or erythema around the lesion” value is reported as “no irritation or erythema”. Besides, the “pain on walking and weight bearing” value in the series on plantar wart (setting [5]) was “weight bearing without pain”. Besides, the plantar wart outcome in the series with plantar wart (Example 13: Topical Gel 30 mg/ml, stopped for the past two weeks, six weeks follow up) is recorded as “the wart was no longer visible”. Moreover, in the series with plantar wart (Example 13: gel not used for over 3 months, seen at 4 months), the plantar wart recurrence result is recorded as “no recurrence of the wart”. Further, the skin tag clearing result with skin tag (Example 18: 0.1 ml Topical Gel 30 mg/ml twice daily, right axillary area, three weeks) was “significant clearing”; in the series with skin tag (setting [4]), “complete clearing”. Moreover, the “callous softness and thickness” value with callouses (Example 14: 30 mg/ml Gel impregnated bandage 1-2 times per day, right foot, person, within one week) is “a softening and a reduction in the thickness of the callous”. Besides, in the series on callouses (Example 14: 30 mg/ml Gel impregnated bandage, right foot (untreated left side still painful), after two weeks), the pain or disability entry is “no longer having any pain or disability”. Moreover, in the series on callouses (Example 14: 30 mg/ml Gel impregnated bandage, right foot, after two weeks), the callous thickness is reported as “had thinned”. For the same compound, the “pain while playing tennis” value in the series with callouses (Example 14: 30 mg/ml Gel impregnated bandage, right foot, within one week) is “reduced pain while playing tennis”.

Regarding `COc1cc2c(c(OC)c1OC)-c1ccc(OC)c(=O)cc1[C@@H](NC(C)=O)CC2` [colchicine], the “block” value in series [1] is given as “blocked”.
